In patent US10174013B2, “Benzimidazole derivatives as kinase inhibitors” (SELVITA S.A., priority 2012, dated 2019):
Structures can show the parent of a compound that is named as a salt. Where two headings read alike, the source gives them in different places.

What was measured:
MV4-11 cells = assay: Growth inhibition, MTS assay, MV4-11; format: cell-based, Human; details: MTS cell viability, read-out: MV4-11 ED50
CDK2/E = CDK2/E (Homo sapiens (Human), UniProt P24941); assay: ADP-Glo Kinase Assay, CDK2/E; format: biochemical; details: 1 μM compound; for inhibition at 1 µM: read-out: CDK2/E % INH (1 μM)
Procedure, shortened: (§1)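 Compounds were diluted in assay buffer to 1000 nM and incubated with kinase, substrate and ATP at apparent Km. Remaining ATP was depleted, ADP converted to ATP and detected by luciferase; percent inhibition came from normalized luminescence.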

MV4-11 xenograft = MV4-11 xenograft in immunocompromised mice; format: in vivo
Procedure, shortened: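 MV4-11 leukemic cells engrafted in NOD/scid or SCID/beige mice; oral dosing started at tumor volume approx. 50-200 mm^3, daily QD or BID for 2-3 weeks. Efficacy read as tumor growth inhibition (TGI), tolerability as body weight change (ΔBW).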

DYRK1 = DYRK1 (Homo sapiens (Human), UniProt Q13627); assay: ADP-Glo Kinase Assay, DYRK1; format: biochemical; details: 1 μM compound; for inhibition at 1 µM: read-out: DYRK1A % INH (1 μM)
Procedure, shortened: as §1

Pim-2 = Pim-2 (Homo sapiens (Human), UniProt Q9P1W9); assay: ADP-Glo Kinase Assay, Pim-2; format: biochemical; details: 1 μM compound; for inhibition at 1 µM: read-out: Pim-2 % INH (1 μM)
Procedure, shortened: as §1

HEL92 cells = assay: Growth inhibition, MTS assay, HEL92; format: cell-based, Human; details: MTS cell viability, read-out: HEL92 ED50
HepG2 cells = assay: Growth inhibition, MTS assay, HepG2; format: cell-based, Human; details: MTS cell viability, read-out: HepG2 ED50
Pim-1 = Pim-1 (Homo sapiens (Human), UniProt P11309); assay: ADP-Glo Kinase Assay, Pim-1; format: biochemical; details: 1 μM compound; for inhibition at 1 µM: read-out: Pim-1 % INH (1 μM)
Procedure, shortened: as §1

[1] = MV4-11 xenograft, oral, 75 mg/Kg BID
[2] = MV4-11 xenograft, oral, doses as in Table 3
[3] = MV4-11 xenograft, oral, 100 mg/Kg QD
[4] = MV4-11 xenograft, oral, 150 mg/Kg QD
[5] = MV4-11 xenograft, oral, 150 mg/Kg BID

Chain of Pim-1 (P11309 whole entry): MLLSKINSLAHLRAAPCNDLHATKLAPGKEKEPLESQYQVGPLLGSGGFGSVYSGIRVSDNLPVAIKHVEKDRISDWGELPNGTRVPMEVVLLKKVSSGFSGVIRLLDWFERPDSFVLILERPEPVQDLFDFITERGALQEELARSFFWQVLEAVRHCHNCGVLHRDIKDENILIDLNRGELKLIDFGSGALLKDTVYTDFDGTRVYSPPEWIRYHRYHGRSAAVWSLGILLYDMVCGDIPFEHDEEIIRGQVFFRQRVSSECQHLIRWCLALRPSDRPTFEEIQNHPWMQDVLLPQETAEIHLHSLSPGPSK
Chain of Pim-2 (Q9P1W9 whole entry): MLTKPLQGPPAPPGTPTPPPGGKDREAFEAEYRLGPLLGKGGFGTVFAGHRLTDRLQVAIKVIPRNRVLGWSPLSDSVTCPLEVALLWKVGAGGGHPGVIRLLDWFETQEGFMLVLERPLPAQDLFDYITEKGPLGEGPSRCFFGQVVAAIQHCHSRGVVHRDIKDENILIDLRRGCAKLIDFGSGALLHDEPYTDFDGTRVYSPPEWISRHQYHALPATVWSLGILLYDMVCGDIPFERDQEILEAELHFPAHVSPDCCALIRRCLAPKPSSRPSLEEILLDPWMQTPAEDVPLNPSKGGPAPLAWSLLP

| SMILES | inhibition at 1 µM (CDK2/E) [%] | TGI (tumor growth inhibition) (MV4-11 xenograft; [2]) | inhibition at 1 µM (DYRK1) [%] | inhibition at 1 µM (Pim-2) [%] | inhibition at 1 µM (Pim-1) [%] | IC50 (MV4-11 cells; Homo sapiens, MV4-11, 72 h) [nM] | TGI (tumor growth inhibition) (MV4-11 xenograft; [4]) [%] | ΔBW (body weight change) (MV4-11 xenograft; [4]) [%] | IC50 (HEL92 cells; Homo sapiens, 72 h) [nM] | IC50 (HepG2 cells; Homo sapiens, HepG2, 72 h) [nM] | other results |
| --- | --- | --- | --- | --- | --- | --- | --- | --- | --- | --- | --- |
| CCn1c(N2CCNCC2)nc2c([N+](=O)[O-])c(Br)c(Br)cc21 [Example 1A, 5,6-dibromo-1-ethyl-4-nitro-2-(piperazin-1-yl)-1H-1,3-benzodiazole hydrochloride] | < 5 | more than 70% | 66 | 22 | 81 | – | – | – | – | – | IC50 (MV4-11 cells; Homo sapiens, MV4-11, 72 hours): 500 nM; TGI (tumor growth inhibition) (MV4-11 xenograft; [1]): 73%; ΔBW (body weight change) (MV4-11 xenograft; [1]): 5.4%; IC50 (HEL92 cells; Homo sapiens, 72 hours): 2600 nM; IC50 (HepG2 cells; Homo sapiens, HepG2, 72 hours): 1300 nM |
| CC(C)n1c(N2CCNC[C@H]2C)nc2c([N+](=O)[O-])c(Br)c(Br)cc21 [Example 1AX] | – | exceeding 97% | – | – | – | – | – | – | – | – | IC50 (MV4-11 cells; 72 hours): 100 nM; TGI (tumor growth inhibition) (MV4-11 xenograft; [3]): 97%; ΔBW (body weight change) (MV4-11 xenograft; [3]): −2.2%; DYRK1A % INH (1 μM) (DYRK1): >95%; Pim-2 % INH (1 μM) (Pim-2): 77%; IC50 (HEL92 cells; 72 hours): 100 nM; IC50 (HepG2 cells; 72 hours): 100 nM; Pim-1 % INH (1 μM) (Pim-1): >95% |
| CC(C)n1c(N2CC[C@@H](N)C2)nc2c(C#N)c(Br)c(Br)cc21 [Example 1BI] | 22 | above 87% | 79 | 82 | > 95 | 600 | 87 | 3.8 | 5100 | 1500 | – |
| CCCn1c(N2CCNCC2)nc2c([N+](=O)[O-])c(Br)c(Br)cc21 [Example 1M] | – | more than 70% | – | – | – | – | – | – | – | – | IC50 (MV4-11 cells; 72 hours): 600 nM; CDK2/E % INH (1 μM) (CDK2/E): <5%; TGI (tumor growth inhibition) (MV4-11 xenograft; [5]): 76%; ΔBW (body weight change) (MV4-11 xenograft; [5]): 9.2%; DYRK1A % INH (1 μM) (DYRK1): >95%; Pim-2 % INH (1 μM) (Pim-2): 44%; IC50 (HEL92 cells; 72 hours): 2200 nM; IC50 (HepG2 cells; 72 hours): 1800 nM; Pim-1 % INH (1 μM) (Pim-1): >95% |
| CC(C)n1c(N2CCNCC2)nc2c([N+](=O)[O-])c(Br)c(Br)cc21 [Example 2A, 5,6-dibromo-4-nitro-2-(piperazin-1-yl)-1-(propan-2-yl)-1H-1,3-benzodiazole hydrochloride] | 44 | exceeding 97% | > 95 | 49 | > 95 | 300 | 99 | −4.4 | 700 | 600 | – |
| Cl.O=[N+]([O-])c1c(Br)c(Br)cc2c1nc(N1CCNCC1)n2C1CCCC1 [Example 2D, 5,6-dibromo-1-cyclopentyl-4-nitro-2-(piperazin-1-yl)-1H-1,3-benzodiazole hydrochloride] | 21 | above 87% | > 95 | 53 | > 95 | 600 | 88 | −3.5 | 4700 | 700 | – |
| CC(C)n1c(C2CCNCC2)nc2c([N+](=O)[O-])c(Br)c(Br)cc21 [Example 26A, 5,6-dibromo-4-nitro-2-(piperidin-4-yl)-1-(propan-2-yl)-1H-1,3-benzodiazole] | 36 | – | > 95 | 68 | > 95 | 200 | – | – | 900 | 600 | ΔBW (body weight change) (MV4-11 xenograft; MV-4-11 xenograft, 26A 25 mg/Kg BID): −6%; TGI (tumor growth inhibition) (MV4-11 xenograft; MV-4-11 xenograft, 26A 25 mg/Kg BID, 15 days): 77%; ΔBW (body weight change) (MV4-11 xenograft; MV-4-11 xenograft, 26A 50 mg/Kg BID): −3%; TGI (tumor growth inhibition) (MV4-11 xenograft; MV-4-11 xenograft, 26A 50 mg/Kg BID, 15 days): 87% |
